In data set [1] the target is Voltage-gated inwardly rectifying potassium channel KCNH2 (Homo sapiens, UniProt Q12809). In words: (§1) Inhibition of human ERG expressed in CHO cells by whole cell patch clamp technique. To be noted: for pIC50: human. A general note: Patch clamp records ionic current or voltage across a cell membrane.
The target of another data set is hERG (KCNH2) (Homo sapiens, UniProt Q12809). The description is as §1. To be noted: human.
The mark [2] stands for this setting: CHO cells that express human ERG.

Sequence of Voltage-gated inwardly rectifying potassium channel KCNH2 (Q12809 whole entry): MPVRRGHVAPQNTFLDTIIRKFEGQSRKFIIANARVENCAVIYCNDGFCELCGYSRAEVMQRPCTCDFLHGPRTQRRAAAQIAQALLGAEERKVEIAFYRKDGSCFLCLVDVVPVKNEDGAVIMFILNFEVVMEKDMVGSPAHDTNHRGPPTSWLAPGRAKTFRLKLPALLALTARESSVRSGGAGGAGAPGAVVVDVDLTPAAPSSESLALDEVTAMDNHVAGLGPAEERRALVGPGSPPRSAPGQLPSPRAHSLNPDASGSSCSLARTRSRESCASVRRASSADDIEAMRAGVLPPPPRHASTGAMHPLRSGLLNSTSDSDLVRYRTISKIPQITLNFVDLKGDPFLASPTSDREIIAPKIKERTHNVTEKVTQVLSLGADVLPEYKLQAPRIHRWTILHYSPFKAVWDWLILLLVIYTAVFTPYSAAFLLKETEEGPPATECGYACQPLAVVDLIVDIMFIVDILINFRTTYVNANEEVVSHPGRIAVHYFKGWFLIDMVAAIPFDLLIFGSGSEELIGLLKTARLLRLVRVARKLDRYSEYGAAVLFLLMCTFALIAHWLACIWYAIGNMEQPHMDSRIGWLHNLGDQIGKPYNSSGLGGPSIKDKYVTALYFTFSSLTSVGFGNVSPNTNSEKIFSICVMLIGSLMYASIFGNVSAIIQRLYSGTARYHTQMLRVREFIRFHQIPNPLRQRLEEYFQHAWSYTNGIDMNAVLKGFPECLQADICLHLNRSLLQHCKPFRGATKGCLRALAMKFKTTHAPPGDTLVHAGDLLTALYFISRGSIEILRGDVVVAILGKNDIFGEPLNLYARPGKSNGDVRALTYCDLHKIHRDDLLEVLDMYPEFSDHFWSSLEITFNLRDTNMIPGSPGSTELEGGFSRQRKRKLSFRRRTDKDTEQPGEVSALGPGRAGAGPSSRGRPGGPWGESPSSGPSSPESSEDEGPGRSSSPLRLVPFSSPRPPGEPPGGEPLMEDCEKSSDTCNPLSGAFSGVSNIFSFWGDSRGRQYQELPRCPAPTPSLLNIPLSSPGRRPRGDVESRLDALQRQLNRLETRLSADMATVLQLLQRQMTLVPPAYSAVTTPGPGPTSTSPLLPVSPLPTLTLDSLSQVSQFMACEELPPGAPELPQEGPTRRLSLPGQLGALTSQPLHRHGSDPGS
Sequence of hERG (KCNH2) (Q12809 whole entry): as above

Consider `COc1ccc(C2CCN(CC[C@H]3CCOc4ccccc43)CC2)cc1OC`, for which the pIC50 in data set [1] (cho) amounted to 6.7.
Turning to `CC[C@H]1OC(=O)[C@H](C)[C@@H](O[C@H]2C[C@@](C)(OC)[C@@H](O)[C@H](C)O2)[C@H](C)[C@@H](O[C@@H]2O[C@H](C)C[C@H](N(C)C)[C@H]2O)[C@](C)(OC)C[C@@H](C)C(=O)[C@H](C)[C@@H](O)[C@]1(C)O` [CLARITHROMYCIN], the pIC50 in data set [1] (cho) was determined as 4.23.
In data set [1], `Oc1ccc(CCN2CCC(Nc3nc4ccccc4n3Cc3ccc(F)cc3)CC2)cc1` [DESMETHEYLASTEMIZOLE] had an IC50 of 0.001 µM.
On the same count and under the same terms, for `COc1c(N2CCNC(C)C2)c(F)cc2c(=O)c(C(=O)O)cn(C3CC3)c12` (configuration not stated) [GATIFLOXACIN] the value was 129 µM; for `O=C(OC1CC2CC3CC(C1)N2CC3O)c1c[nH]c2ccccc12` (configuration not stated) [MDL-74156], 5.89 µM.
On to `CN(c1nccc(=O)[nH]1)C1CCN(c2nc3ccccc3n2Cc2ccc(F)cc2)CC1` [MIZOLASTINE], for which the pIC50 in data set [1] (cho) turned out to be 6.36.
Still for that read-out and setting: for `CN1CCC[C@H]1c1cccnc1` [NICOTINE] the value was 3.61.
At hERG (KCNH2) (setting [2]), `CCOC(=O)C1=C(C)NC(C)=C(C(=O)OC)C1c1cccc([N+](=O)[O-])c1` (configuration not stated) [NITRENDIPINE] had an IC50 of 10 µM.
As for `Cc1cc2c(s1)Nc1ccccc1N=C2N1CCN(C)CC1` [OLANZAPINE], the pIC50 in data set [1] (cho) was 6.74.
As to `C[C@@H]1CN(c2c(F)c(N)c3c(=O)c(C(=O)O)cn(C4CC4)c3c2F)C[C@H](C)N1` [SPARFLOXACIN], the pIC50 in data set [1] (setting [2]) is on record as 4.74.
Compound `COc1ccc(C2CCN(CC[C@H]3CCOc4ccccc43)CC2)cc1OC` [TERIKALANT] had an IC50 at hERG (KCNH2) (cho) of 0.251 µM.
With `COc1ccc(C(=O)N2CCN(c3ccc4c(c3)CCC(=O)N4)CC2)cc1OC` [VESNARINONE], the pIC50 in data set [1] (setting [2]) was 5.96.

What is called pIC50 is the IC50 on a negative log10 scale, so that one unit is a factor of ten. Read a low pIC50 as a large IC50. As usually defined, the IC50 is the concentration at which inhibition is half-maximal. Higher therefore signals weaker potency in that assay.
